Structures are written as SMILES.

In ChEMBL document CHEMBL2151037, “Synthesis of novel 1H-1,2,3-triazole tethered C-5 substituted uracil-isatin conjugates and their cytotoxic evaluation” (Eur J Med Chem, 2012) one finds IC50 data, which are given here for twelve compounds.

Format in all cases: functional, cell-based
One experiment concerns DU-145. Kind of experiment: Antiproliferative activity against human DU145 cells after 24 hrs by MTT assay. As to conditions: DU-145, 24 h. (Formazan colour is commonly taken as a measure of viable cells.)
The test system of the next experiment is MCF7. Kind of experiment: Antiproliferative activity against human MCF7 cells after 24 hrs by MTT assay. The following applies: MCF7, 24 h.
In a further experiment the test system is HeLa. Kind of experiment: Antiproliferative activity against human HeLa cells after 24 hrs by MTT assay.

As a reminder, the IC50 is the concentration that gives 50% inhibition. Low readings indicate greater potency, high ones weaker potency. For the compound `O=C1C(=O)N(CCn2cc(Cn3ccc(=O)n(Cc4cn(CCN5C(=O)C(=O)c6cc(F)ccc65)nn4)c3=O)nn2)c2ccc(F)cc21`, the IC50 is over 100 µM in the experiment with DU-145, 43.1 µM with MCF7 and over 100 µM with HeLa.

With `O=C1C(=O)N(CCn2cc(Cn3ccc(=O)n(Cc4cn(CCN5C(=O)C(=O)c6ccccc65)nn4)c3=O)nn2)c2ccccc21`, the IC50 with DU-145 was 57.8 µM; in the experiment with MCF7 it was 45.5 µM; in the experiment on HeLa it was over 100 µM.

In the case of `O=C1C(=O)N(CCn2cc(Cn3ccc(=O)n(Cc4cn(CCN5C(=O)C(=O)c6cc(Cl)ccc65)nn4)c3=O)nn2)c2ccc(Cl)cc21`, the IC50 in the experiment with DU-145 was 42.8 µM; in the experiment with MCF7, over 100 µM; in the experiment with HeLa, over 100 µM.

With `O=C1C(=O)N(CCn2cc(Cn3cc(Cl)c(=O)n(Cc4cn(CCN5C(=O)C(=O)c6ccccc65)nn4)c3=O)nn2)c2ccccc21`, the IC50 was 18.2 µM in the experiment with DU-145, over 100 µM in the experiment on MCF7 and over 100 µM with HeLa.

Turning to `O=C1C(=O)N(CCn2cc(Cn3cc(Cl)c(=O)n(Cc4cn(CCN5C(=O)C(=O)c6cc(Cl)ccc65)nn4)c3=O)nn2)c2ccc(Cl)cc21`, the results for the IC50 in the experiment on DU-145, in the experiment with MCF7 and in the experiment with HeLa were over 100 µM, 38.2 µM and 65.7 µM, respectively.

With `O=C1C(=O)N(CCn2cc(Cn3cc(F)c(=O)n(Cc4cn(CCN5C(=O)C(=O)c6cc(Cl)ccc65)nn4)c3=O)nn2)c2ccc(Cl)cc21`, the IC50 is over 100 µM in the experiment on DU-145, 63.3 µM in the experiment with MCF7 and over 100 µM in the experiment on HeLa.

Regarding `O=C1C(=O)N(CCCn2cc(Cn3ccc(=O)n(Cc4cn(CCCN5C(=O)C(=O)c6cc(Cl)ccc65)nn4)c3=O)nn2)c2ccc(Cl)cc21`, the IC50 was 13.9 µM with DU-145, over 100 µM in the experiment with MCF7 and 33.1 µM in the experiment with HeLa.

With `Cc1ccc2c(c1)C(=O)C(=O)N2CCCn1cc(Cn2ccc(=O)n(Cc3cn(CCCN4C(=O)C(=O)c5cc(C)ccc54)nn3)c2=O)nn1`, the IC50 in the experiment on DU-145 is 63.7 µM; in the experiment with MCF7 it was over 100 µM; in the experiment with HeLa it was over 100 µM.

In the case of `O=C1C(=O)N(CCn2cc(Cn3cc(F)c(=O)n(Cc4cn(CCN5C(=O)C(=O)c6ccccc65)nn4)c3=O)nn2)c2ccccc21`, the values for the IC50 with DU-145, in the experiment with MCF7 and in the experiment with HeLa were 28.6 µM, over 100 µM and over 100 µM, respectively.

In the case of `O=C1C(=O)N(CCCn2cc(Cn3ccc(=O)n(Cc4cn(CCCN5C(=O)C(=O)c6ccccc65)nn4)c3=O)nn2)c2ccccc21`, the IC50 was over 100 µM in the experiment with DU-145, 56.4 µM with MCF7 and 50.7 µM with HeLa.

Regarding `Cc1ccc2c(c1)C(=O)C(=O)N2CCn1cc(Cn2ccc(=O)n(Cc3cn(CCN4C(=O)C(=O)c5cc(C)ccc54)nn3)c2=O)nn1`, the IC50 in the experiment on DU-145 was 38.2 µM; in the experiment with MCF7 it was 51.1 µM; in the experiment with HeLa, 52.6 µM.

In the case of `O=C1C(=O)N(CCCn2cc(Cn3ccc(=O)n(Cc4cn(CCCN5C(=O)C(=O)c6cc(F)ccc65)nn4)c3=O)nn2)c2ccc(F)cc21`, the IC50 was determined as 66.2 µM in the experiment with DU-145, 98.7 µM in the experiment with MCF7 and 52.4 µM in the experiment on HeLa.
